These results are taken from patent US11103520B2, “Analogs of N-acetlyglucosamine and uses thereof” (THE REGENTS OF THE UNIVERSITY OF CALIFORNIA, priority 2014, dated 2021).

The test system of one data set is animals. The note with it: in vivo; cited from earlier work.
A further data set deals with myelin-reactive T cells. To be noted: T cells treated in vitro, transferred into naïve mice; cited from earlier work.
Another data set concerns 2D2 TCR transgenic mice. Kind of data set: EAE in 2D2 TCR transgenic mice, oral GlcNAc after disease onset. Format: in vivo, mouse. The note with it: oral 0.25 mg/ml after onset. The source says:
Day 1 indicates the first day of disease onset. […] Mean clinical scores per group daily were compared by the Mann-Whitney U test.

In a further data set the test system is humans. The note with it: supplement use for many years; cited from earlier work.
The next data set concerns non-obese diabetic mice. To be noted: oral, initiated prior to disease onset; cited from earlier work.
Data set [1] deals with peripheral blood mononuclear cells. The note with it: induced by MS-associated MGAT1 variant; cited from earlier work.
Data set [2] has as its system mice immunized with MOG 35-55 peptide. Kind of data set: Oral GlcNAc in mice immunized with MOG 35-55 peptide, splenocytes re-stimulated in culture. The class given is in vivo, mouse. As for the experimental part: The data plotted in FIG. 6A was obtained from experiments in which splenocytes were isolated from mice and cultured in vitro with the indicated concentrations of GlcNAc under resting or activated (1000 ng/ml anti-CD3) conditions for 3 days, stained with L-PHA-FITC in triplicate, and analyzed by FACS. The data plotted in FIGS. 6B-6E were obtained from experiments in which mice were immunized with the indicated amounts of MOG 35-55 peptide emulsified in Complete Freund's adjuvant and treated with GlcNAc at the same time by supplementing their drinking water at 0.25 mg/ml GlcNAc and control mice that were immunized with the indicated amounts of MOG 35-55 peptide but not treated with GlcNAc. […] Although not wishing to be bound by any particular theory, the reduction in CD25^+T cell blasts at the highest antigen concentrations is consistent with the explanation that the reduction is secondary to the observed increase in cell death, consistent with antigen-induced cell death at high antigen stimulation levels.

Data set [3] deals with human T cells. Kind of data set: CD25 and CD69 expression in human T cells stimulated with α-CD3. Format: cell-based. To be noted: FIG. 11. From the text:
FIG. 12A is a graph that plots CD25 expression (%) in human T cells as a function of α-CD3 and GlcNAc/GlcNAc 6-acetate concentrations. FIG. 12B is a graph that plots CD69 expression (%) in human T cells as a function of α-CD3 and GlcNAc/GlcNAc 6-acetate concentrations.

The conditions of data set [4]: cited from earlier work.
The subject of another data set is C57BL/6 mice. Put plainly: EAE in C57BL/6 mice, oral GlcNAc after disease onset. Format: in vivo, mouse. On the procedure:
FIG. 7A is a graph that plots mean clinical EAE score as a function of days after disease onset for control and treated groups of mice. […] Error bars in FIGS. 7A and 7D represent the means±S.E. of duplicate or greater values unless otherwise stated.
The data plotted in FIG. 7A was obtained from experiments in which EAE was induced in C57BL/6 mice by immunization with MOG 35-55 peptide emulsified in Complete Freund's adjuvant and pertussis toxin. GlcNAc mice were treated orally with GlcNAc by supplementing the drinking water at 0.25 mg/ml starting on the second day after disease onset and continued for the duration of the study and control mice were given drinking water not supplemented with GlcNAc (n=9 per control group, n=7 per GlcNAc group). Day 1 indicates the first day of disease onset. Mice were examined daily for clinical signs of EAE over the next 30 days with the observer blinded to treatment conditions and scored daily as follows: 0, no disease; 1, loss of tail tone; 2, hindlimb weakness; 3, hindlimb paralysis; 4, forelimb weakness or paralysis and hindlimb paralysis; 5, moribund or dead. Mean clinical scores per group daily were compared by the Mann-Whitney U test. […] Error bars in FIGS. 7A and 7D represent the means±S.E. of duplicate or greater values unless otherwise stated.

The subject of data set [5] is human T cells. Put plainly: N-glycan branching (L-PHA) in human T cells. Format: cell-based. To be noted: PMA/Ionomycin stimulation, FIG. 9 and FIG. 10. From the text: Relative L-PHA (%) in human T cells is plotted as a function of PMA/Ionomycin stimulation and GlcNAc/GlcNAc-diacetate concentrations.
Relative L-PHA (%) in human T cells is plotted as a function of PMA/Ionomycin stimulation and GlcNAc/GlcNAc-monoacetate concentrations.

Data set [6] has as its system pediatric treatment-resistant inflammatory bowel disease patients. The note with it: oral GlcNAc; remission for approximately 2 years; cited from earlier work.
A further data set has as its system N-glycan branching. The note with it: in vitro; cited from earlier work.
The test system of data set [7] is C57/BL6 mice immunized with MOG35-55 peptide. Kind of data set: Oral treatment, N-glycan branching in mouse T cells in vivo. To be noted: 1 mg/mL in drinking water, five days post immunization, CD4+ blasts. On the procedure:
Ten-week old female C57/BL6 were immunized with 100 μg of MOG35-55 peptide in a 1:1 mixture with CFA. Groups were non-immunized (n=2), immunized and given drinking water alone (n=3), immunized and given GlcNAc at 1 mg/mL in drinking water (n=3), or immunized and given G-6-A at 1 mg/mL in drinking water (n=3). Splenocytes were harvested five days post immunization, and labeled for FACS analysis. For GlcNAc and G-6-A treated groups, each mouse drank an average of 3 mL per day. Data shown is gated on a blasting region on CD4^+ cells.

The next data set relates to mouse T cells. Kind of data set: Mouse splenocyte cultures (L-PHA, CD69, CFSE proliferation). To be noted: splenocytes, anti-CD3 1 μg/mL; FIG. 15. The class given is cell-based. On the procedure:
FIG. 15A is a graph illustrating splenocytes from C57/BL6 female (n=6, 8-24 weeks old) or male (n=5, 10-13 weeks old) mice after culturing in the presence of anti-CD3 (1 μg/mL). Cells were collected on day 3, and labeled for FACS analysis. FIG. 15B is a series of graphs illustrating in vitro cultures of splenocytes either un-stimulated (resting) or anti-CD3 (1 μg/mL) activated. G-6-A (20 mM) and or GlcNAc (40 mM). Cells were harvested over a three-day time course, and labeled for FACS analysis. FIG. 15C is a graph illustrating in vitro stimulated splenocytes (anti-CD3 at 1 μg/mL) that were cultured for three-days and labeled for FACS analysis of the T cell activation marker CD69 at the time points indicated. […] Splenocytes were labeled with 1 uM of CFSE prior to in vitro anti-CD3 (1 μg/mL) activation for three-days. Overlaying histograms is on gated CD4+ cells.
Cells were collected on day 3, and labeled for FACS analysis. Data shown is on gated CD4^+ cells, and percent changes of L-PHA MFI were normalized to a media only control.
G-6-A (20 mM) and or GlcNAc (40 mM). Cells were harvested over a three-day time course, and labeled for FACS analysis. Data shown is on gated CD4^+ cells, and percent changes of L-PHA MFI were normalized to a media only control.
Data shown is on gated CD4^+ cells. […]

[8] abbreviates: oral, 0.25 mg/ml in drinking water, 14 days, vs control mice.

Each structure is given as a SMILES string. “Also recorded” adds a separate entry of the source.

With `CC(=O)N[C@@H](C=O)[C@@H](O)[C@H](O)[C@H](O)CO` [GlcNAc, 2-(acetylamino)-2-deoxy-D-glucose], the “toxicity in chronic animal studies” value in the data set on animals is “no associated toxicity”. In the data set with myelin-reactive T cells, the “EAE after adoptive transfer of treated T cells” value is “inhibited EAE when these cells were adoptively transferred into naïve mice”. Moreover, in the data set with 2D2 TCR transgenic mice (2D2 TCR transgenic mice scored ≤4), the “clinical course of EAE, moderate-severe disease” value is on record as “attenuates the clinical course of EAE in moderate-severe disease”. The “clinical course of EAE, lethal disease” value in the data set on 2D2 TCR transgenic mice (2D2 TCR transgenic mice with scores of 5) is on record as “not disease with rapid lethal progression”. In the data set with humans, the “adverse effects in humans” value is given as “without reported adverse effects”. The spontaneous autoimmune diabetes entry in the data set on non-obese diabetic mice is given as “suppress spontaneous autoimmune diabetes”. For the same compound, in data set [1], the “N-glycan branching deficiency and T cell hyper-proliferation” value is “rescued N-glycan branching deficiency and T cell hyper-proliferation”. Further, the “secretion of Th1 (IFN-γ, TNF-α) and Th17 (IL-17, IL-22) cytokines” value in data set [2] (oral treatment in vivo, re-stimulation with MOG 35-55 in vitro) is “inhibited secretion of Th1 cytokines (IFN-γ and TNF-α) and Th17 cytokines (IL-17 and IL-22)”. In data set [2] (setting [8]), the “CD4+CD25+FoxP3+ regulatory T cells” value is recorded as “promoted development of CD4^+CD25^+FoxP3^+ regulatory T cells” and the “CD25+ T cells upon re-stimulation with MOG 35-55 peptide” value is reported as “reduced CD25^+T cells”. Besides, in the data set with human T cells [3], the “CD25 expression (%)” value is “N-acetylglucosamine 6-acetate inhibits CD25 and CD69 expression to greater effect than GlcNAc”; the “CD69 expression (%)” value was “N-acetylglucosamine 6-acetate inhibits CD25 and CD69 expression to greater effect than GlcNAc”. Also, the membrane permeability result in data set [4] is listed as “low membrane permeability (poor cell entry)”. Further, the “clinical course of EAE (mean clinical score)” value in the data set on C57BL/6 mice (C57BL/6 mice, oral 0.25 mg/ml in drinking water from second day after onset) is listed as “attenuates the clinical course of experimental autoimmune encephalomyelitis (EAE)”. Moreover, in the data set with C57BL/6 mice (re-stimulation with MOG 35-55 peptide in vitro), the “production of pro-inflammatory cytokines IFN-γ, TNF-α, IL-17, IL-22” value was “inhibited production of pro-inflammatory cytokines IFN-γ, TNF-α, IL-17, and IL-22”. The “N-glycan branching in T cells (L-PHA staining)” value in the data set on C57BL/6 mice (representative mice at peak of disease) is “increased N-glycan branching in T cells”. Further, the “CD25+ T cells” value with C57BL/6 mice (representative mice at peak of disease, vs control mice) was “significant reduction in CD25^+T cells”. Further, the “N-glycan branching (Relative L-PHA (%))” value with human T cells [5] is “increases N-glycan branching to greater effect than N-acetylglucosamine-diacetate compounds; also recorded: N-acetylglucosamine 6-acetate increases N-glycan branching to greater effect than GlcNAc”. In data set [6], the “children in clinical remission” value was 8 of 12. Besides, in the data set with N-glycan branching, the “N-glycan branching with increasing concentration” value is given as “only enhance N-glycan branching”.
As for `CC(=O)N[C@H]1C(OC(C)=O)O[C@H](COC(C)=O)[C@@H](OC(C)=O)[C@@H]1OC(C)=O` (stereo partly shown) [GlcNAc-tetraacetate, N-acetylglucosamine tetraacetate], the membrane permeability result in [4] is “increased membrane permeability as compared with GlcNAc”.
Regarding `CC(=O)N[C@H]1C(O)O[C@H](CO)[C@@H](OC(C)=O)[C@@H]1OC(C)=O` (stereo partly shown) [N-acetylglucosamine 3,4 diacetate], the “N-glycan branching (Relative L-PHA (%))” value in the data set on human T cells [5] is recorded as “GlcNAc increases N-glycan branching to greater effect than N-acetylglucosamine-diacetate compounds”.
Same read-out and setting: the entry for `CC(=O)N[C@H]1C(O)O[C@H](COC(C)=O)[C@@H](O)[C@@H]1OC(C)=O` (stereo partly shown) [N-acetylglucosamine 3,6 diacetate] is “GlcNAc increases N-glycan branching to greater effect than N-acetylglucosamine-diacetate compounds”; for `CC(=O)N[C@H]1C(O)O[C@H](CO)[C@@H](O)[C@@H]1OC(C)=O` (stereo partly shown) [N-acetylglucosamine 3-acetate] it is “N-acetylglucosamine 6-acetate increases N-glycan branching to greater effect than GlcNAc or N-acetylglucosamine 3-acetate”.
Same read-out and setting: in the case of `CC(=O)N[C@H]1C(O)O[C@H](COC(C)=O)[C@@H](OC(C)=O)[C@@H]1O` (stereo partly shown) [N-acetylglucosamine 4,6 diacetate] it was “GlcNAc increases N-glycan branching to greater effect than N-acetylglucosamine-diacetate compounds”.
For the compound `CC(=O)N[C@H]1C(O)O[C@H](COC(C)=O)[C@@H](O)[C@@H]1O` (stereo partly shown) [N-acetylglucosamine 6-acetate], the “N-glycan branching in mouse T cells in vivo” value in data set [7] was “increases N-glycan branching in mouse T cells in vivo”. In the data set with human T cells [3], the “CD25 expression (%)” value is “inhibits CD25 and CD69 expression to greater effect than GlcNAc”; the “CD69 expression (%)” value is “inhibits CD25 and CD69 expression to greater effect than GlcNAc”. In addition, the “effectiveness in mouse T cells” value in the data set with mouse T cells was “more effective than GlcNAc in mouse T cells”. The “N-glycan branching (Relative L-PHA (%))” value in the data set with human T cells [5] is recorded as “increases N-glycan branching to greater effect than GlcNAc or N-acetylglucosamine 3-acetate”.
Take `N[C@H]1C(O)O[C@H](CO)[C@@H](O)[C@@H]1O` (stereo partly shown) [glucosamine]: the “N-glycan branching with increasing concentration” value with N-glycan branching is recorded as “initially increasing but subsequently decreasing N-glycan branching”.
